Reference: a compilation of properties of binary mixtures (doi:10.1007/s10953-020-00967-3)

Test: xn = mol fraction of the nth substance listed
Conditions: 101 kPa

CN(C)C=O + CCCC[n+]1ccn(C)c1.F[B-](F)(F)F
x2 = 0
Conditions | viscosity [mPa·s]
293.15 K | 0.88
298.15 K | 0.83
303.15 K | 0.78
308.15 K | 0.74
313.15 K | 0.7
318.15 K | 0.67
323.15 K | 0.63

CCCC[n+]1ccn(C)c1.F[B-](F)(F)F + CN(C)C=O
viscosity [mPa·s]
Conditions | 293.15 K | 298.15 K | 303.15 K | 308.15 K | 313.15 K | 318.15 K | 323.15 K
x1 = 0.08 | – | 2.56 | 2.3 | 2.27 | 1.95 | – | –
x1 = 0.16 | 5.71 | 3.95 | 3.21 | 3.29 | – | 1.84 | 1.63
x1 = 0.24 | 9 | 5.82 | 4.17 | 3.9 | 2.61 | 1.59 | 1.88
x1 = 0.34 | 13.7 | 8.9 | 6.22 | 4.65 | 2.49 | 0.55 | 1.38
x1 = 0.43 | 18.4 | 12.1 | 8 | – | 2.98 | – | 0.75
x1 = 0.55 | 26.7 | 17.7 | 12.7 | 9.6 | 5.74 | – | 0.5
x1 = 0.65 | 38.3 | 27.6 | 20.7 | 16 | 10.4 | 5.23 | 2.3
x1 = 0.74 | 55.2 | – | 33.6 | 26.2 | – | – | –
x1 = 0.83 | 77 | – | 51.9 | 42.4 | 32.6 | 23.6 | 15.9
x1 = 0.94 | 105 | – | – | 61.9 | 49.3 | 37.5 | –
x1 = 1 | 125 | 105 | 88 | 72 | 57.7 | 44 | 31.6
